Measured values: publication PMC5318888, “SAMHD1 enhances nucleoside-analogue efficacy against HIV-1 in myeloid cells” (Scientific Reports, 2017)
pEC50: −log10 of the molar value.

How the values were obtained:
[1] = test system: HIV-1-GFP; experiment: Anti-HIV-1 activity in U937 cells transduced with wt SAMHD1 or HD206-7AA mutant; assay type: cell-based
Protocol: (§1) Antiviral assays were further performed in monocytoid cells transduced with YFP-expressing VLPs containing WT SAMHD1, HD206-7AA or Vpx. Briefly, U937 cells (6 × 10^5 cells/mL) were transduced with WT SAMHD1-YFP or HD206-7AA-YFP VLPs by spinoculation at 800 × g for 90 min in the presence of 1 μg/mL polybrene. Similarly, THP-1 cells (6 × 10^5 cells/mL) were transduced with Vpx-YFP VLPs by spinoculation at 800 × g for 90 min in the presence of 1 μg/mL polybrene. Cells were incubated at 37 °C in 5% CO2 and after 72 h, PMA^+ cells (6 × 10^5 cells/mL) were treated with 100 nM PMA and PMA^− cells (7.5 × 10^4 cells/mL) were left untreated. Cells were then incubated at 37 °C in 5% CO2 for 48 h. Nucleoside analogues were added at increasing concentrations (0–200 μM; except CFB, 0–1.6 μM) and cells were further incubated for 48 h. PMA^− cells were then infected with HIV-1-GFP by spinoculation at 800 × g for 90 min in the presence of 1 μg/mL polybrene, PMA^+ cells were infected with HIV-1-GFP in the presence of 1 μg/mL polybrene only. Cells were incubated for 72 h at 37 °C in 5% CO2 and then analysed by two-colour flow cytometry using a Fortessa X20 analyser (BD Biosciences). Data were analysed using the FlowJo software suite.
(§2) The cytotoxic concentration of nucleoside analogue that inhibits cell viability by 50% (CC50) and the effective concentration of nucleoside analogue that inhibits infection of cells by 50% (EC50) were calculated for each independent experiment by non-linear regression using GraphPad Prism v6.00 for Windows (GraphPad Software, San Diego, CA). Non-ambiguous values were subjected to a replicate test to calculate confidence intervals of 95% (95% CI). CC50 and EC50 values were determined for at least two independent experiments for each nucleoside analogue and a selectivity index (SI) also calculated, (SI = CC50/EC50). EC50 values for each replicate were used to perform an unpaired two-tailed t-test to determine significant differences between U937 cells expressing SAMHD1 wt or HD206-7AA mutant and THP-1 cells expressing Vpx or untransduced cells. P values of <0.005 were considered statistically significant.

[2] = Cytotoxicity, live cells by flow cytometry, Jurkat cells; assay type: cell-based; details: human
Protocol: (§3) H9, Jurkat and undifferentiated U937 and THP-1 (PMA^−) cells (6 × 10^5 cells/mL) were treated with increasing concentrations of nucleoside analogues (0–200 μM; except CFB, 0–1.6 μM) and incubated at 37 °C in 5% CO2 for 48 h. Medium was then replaced and cells were further incubated for 72 h. Non-dividing U937 and THP-1 (PMA^+) cells (6 × 10^5 cells/mL) were differentiated by addition of 100 nM phorbol-12-myristate-13-acetate (PMA^+) for 48 h and then treated with increasing concentrations of nucleoside analogues as described above. The percentage of live cells was determined by flow cytometry using Live/Dead fixable blue-fluorescent dyes (Invitrogen) and a Fortessa X20 analyser (BD Biosciences). Data were analysed using the FlowJo software suite.
as §2

[3] = in vitro; assay type: cell-based; details: human
Protocol: as §3, §2

[4] = Cytotoxicity, live cells by flow cytometry, THP-1 cells (PMA−/PMA+); assay type: cell-based; details: human
Protocol: as §3, §2

[5] = test system: THP-1 cells; experiment: as above; assay type: cell-based; details: human, 48 h
Protocol: as §3, §2

[6] = test system: HIV-1-GFP; experiment: microbe, parasite or virus in culture; assay type: cell-based
Protocol: (§4) H9 and Jurkat cells (6 × 10^5 cells/mL) were treated with increasing concentrations of nucleoside analogues (0–200 μM; except CFB, 0–1.6 μM) and incubated for 4 h at 37 °C in 5% CO2. Cells were then infected with HIV-1-GFP by spinoculation at 800 × g for 90 min in the presence of 1 μg/mL polybrene, and further incubated at 37 °C in 5% CO2 for 72 h. Undifferentiated U937 and THP-1 (PMA^−) cells (6 × 10^5 cells/mL) were treated with increasing concentrations of nucleoside analogues (0–200 μM; except CFB, 0–1.6 μM) and incubated at 37 °C in 5% CO2 for 48 h. Cells were then infected with HIV-1-GFP by spinoculation at 800 × g for 90 min in the presence of 1 μg/mL polybrene, and further incubated at 37 °C in 5% CO2 for 72 h. Non-dividing U937 and THP-1 (PMA^+) cells (6 × 10^5 cells/mL) were differentiated by addition of 100 nM PMA (PMA^+) for 48 h and treated with increasing concentrations of nucleoside analogues as described above. Cells were then infected with HIV-1-GFP in the presence of 1 μg/mL polybrene and further incubated at 37 °C in 5% CO2 for 72 h. The percentage of GFP^+cells was determined by one-colour flow cytometry using a Fortessa X20 analyser (BD Biosciences) and the data analysed using the FlowJo software suite.
(§5) Non-ambiguous values were subjected to a replicate test to calculate confidence intervals of 95% (95% CI). CC50 and EC50 values were determined for at least two independent experiments for each nucleoside analogue and a selectivity index (SI) also calculated, (SI = CC50/EC50). EC50 values for each replicate were used to perform an unpaired two-tailed t-test to determine significant differences between U937 cells expressing SAMHD1 wt or HD206-7AA mutant and THP-1 cells expressing Vpx or untransduced cells. P values of <0.005 were considered statistically significant.

[7] = Cytotoxicity, live cells by flow cytometry, H9 cells; assay type: cell-based; details: human
Protocol: as §3, §2

[8] = test system: U937 cells; experiment: Cytotoxicity, live cells by flow cytometry, U937 cells (PMA−/PMA+); assay type: cell-based; details: human, 48 h
Protocol: as §3, §2

[9] = as above; assay type: cell-based; details: human
Protocol: as §3, §2

[10] = test system: HIV-1-GFP; experiment: Anti-HIV-1 activity in THP-1 cells with or without Vpx transduction; assay type: cell-based
Protocol: as §1, §2

[11] = target: T1, SAMHD1 (Homo sapiens, UniProt Q9Y3Z3); set-up: method as in PMID 25331707; details: previous in vitro assays; cited from earlier work
T1 construct: The final concentrations were 100 nM SAMHD1(115–626), 10 nM Ppx1; strep-tag; made in house

[12] = test system: HIV-1-GFP; experiment: microbe, parasite or virus in culture; assay type: cell-based; remark: listed apart in the source
Protocol: as §4, with “Cells” for “H9 and Jurkat cells (6 × 10^5 cells/mL) were treated with increasing concentrations of nucleoside analogues (0–200 μM; except CFB, 0–1.6 μM) and incubated for 4 h at 37 °C in 5% CO2. Cells”, “Undifferentiated U937 and THP-1 (PMA^−) cells (6 × 10^5 cells/mL) were treated with increasing concentrations of nucleoside analogues (0–200 μM; except CFB, 0–1.6 μM) and incubated at 37 °C in 5% CO2 for 48 h.” left out
as §5

[13] = Human immunodeficiency virus 1, U-937, read-out: EC50 [95% CI], U937 PMA+, HD206/7AA+ population
[14] = Human immunodeficiency virus 1, U-937, read-out: EC50 [95% CI], U937 PMA+, SAMHD1+ population
[15] = Human immunodeficiency virus 1, U-937, read-out: EC50 [95% CI], U937 PMA−, HD206/7AA+ population
[16] = Human immunodeficiency virus 1, U-937, read-out: EC50 [95% CI], U937 PMA−, SAMHD1+ population
[17] = Human immunodeficiency virus 1, THP-1, read-out: EC50 [95% CI], THP1 PMA+
[18] = Human immunodeficiency virus 1, THP-1, read-out: EC50 [95% CI], THP1 PMA−
[19] = Human immunodeficiency virus 1, U-937, read-out: EC50 [95% CI], U937 PMA+
[20] = Human immunodeficiency virus 1, U-937, read-out: EC50 [95% CI], U937 PMA−
[21] = Human immunodeficiency virus 1, THP-1, read-out: EC50 [95% CI], THP1 PMA+, Vpx+
[22] = Human immunodeficiency virus 1, THP-1, read-out: EC50 [95% CI], THP1 PMA+, Vpx−
[23] = Human immunodeficiency virus 1, THP-1, read-out: EC50 [95% CI], THP1 PMA−, Vpx+
[24] = Human immunodeficiency virus 1, THP-1, read-out: EC50 [95% CI], THP1 PMA−, Vpx−

T1 sequence (Q9Y3Z3 115-626): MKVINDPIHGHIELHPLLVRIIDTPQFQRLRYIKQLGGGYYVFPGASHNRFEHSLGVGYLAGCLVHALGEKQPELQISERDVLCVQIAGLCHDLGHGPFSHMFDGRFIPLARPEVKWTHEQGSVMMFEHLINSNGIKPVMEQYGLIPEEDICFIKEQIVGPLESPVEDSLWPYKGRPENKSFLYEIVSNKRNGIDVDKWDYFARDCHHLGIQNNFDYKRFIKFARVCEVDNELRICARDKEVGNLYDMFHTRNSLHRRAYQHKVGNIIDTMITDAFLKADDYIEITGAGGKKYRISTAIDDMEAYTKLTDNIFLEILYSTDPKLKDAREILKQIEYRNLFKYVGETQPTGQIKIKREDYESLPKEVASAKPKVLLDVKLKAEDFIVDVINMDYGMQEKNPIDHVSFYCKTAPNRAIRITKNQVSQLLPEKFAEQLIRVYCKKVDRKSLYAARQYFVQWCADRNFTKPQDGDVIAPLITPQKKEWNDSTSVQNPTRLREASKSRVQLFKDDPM

SMILES | pEC50 [1, 13] | pEC50 [1, 14] | pEC50 [1, 15] | pEC50 [1, 16] | Fold (EC50 HD206/7AA vs SAMHD1) ([1]; U937 PMA+) [fold] | Fold (EC50 HD206/7AA vs SAMHD1) ([1]; U937 PMA−) [fold] | CC50 at 48 h [2] [nM] | pEC50 [6, 17] | pEC50 [6, 18] | pEC50 [6, 19] | pEC50 [6, 20] | fold increase of anti-HIV-1 activity in PMA+ over PMA− cells ([6]; THP-1) [fold] | SI, selectivity index CC50/EC50 ([6]; THP-1 PMA+) | SI, selectivity index CC50/EC50 ([6]; THP-1 PMA−) | SI, selectivity index CC50/EC50 ([6]; U937 PMA+) | SI, selectivity index CC50/EC50 ([6]; U937 PMA−) | CC50 at 48 h [7] [nM] | pEC50 [10, 21] | pEC50 [10, 22] | hydrolysis by SAMHD1 (substrate) [11] | other results
Nc1nc(NC2CC2)c2ncn([C@H]3C=C[C@@H](CO)C3)c2n1 [ABC] | 5.15 | 6.76 | 4.66 | 4.76 | 41 | 1 | > 200000 | 7.51 | 6.31 | 5.13 | 4.85 | 16 | > 6452 | > 406 | > 27 | > 14 | > 200000 | 5.15 | 7.42 |  | CC50 at 48 h [3]: > 200000 nM; CC50 at 48 h [4]: > 200000 nM; CC50 [5]: > 200000 nM; CC50 [8]: > 200000 nM; CC50 at 48 h [9]: > 200000 nM; pEC50 [10, 23]: 6.21; pEC50 [10, 24]: 6.34; Fold (EC50 Vpx+ vs Vpx−) ([10]; THP1 PMA+): 187 fold; Fold (EC50 Vpx+ vs Vpx−) ([10]; THP1 PMA−): 1 fold
Nc1nc2c(ncn2COCCOP(=O)(O)OP(=O)(O)OP(=O)(O)O)c(=O)[nH]1 [ACV-TP, Aciclovir triphosphate] |  |  |  |  |  |  |  |  |  |  |  |  |  |  |  |  |  |  |  | non-hydrolysable | allosteric activation of SAMHD1 [11]: allosteric activator of SAMHD1 with comparable efficiency to GTP
Nc1nc(Cl)nc2c1ncn2[C@@H]1O[C@H](CO)[C@@H](O)[C@@H]1F [CFB, 2-chloro-9-(2′-Deoxy-2′-fluoro-beta-D-arabinofuranosyl)adenine] | 7.54 | 8.89 | 6.97 | 6.86 | 22 | 1 | 49 | 8.52 | 6.88 | 7.43 | 6.92 | 44 | > 533 | < 1 | > 43 | < 1 | 31 | 7.92 | 8.52 |  | SI, selectivity index CC50/EC50 ([12]; H9 cells): < 1; pEC50 ([12]; Human immunodeficiency virus 1, H9, read-out: EC50 anti-HIV-1, H9 cells): 7.03; pEC50 ([12]; Human immunodeficiency virus 1, Jurkat, read-out: EC50 anti-HIV-1, Jurkat cells): 6.18; SI, selectivity index CC50/EC50 ([12]; Jurkat cells): < 1; fold increase of anti-HIV-1 activity in PMA+ over PMA− cells ([6]; U937): 3 fold; pEC50 [10, 23]: < 5.80; pEC50 [10, 24]: 6.47; Fold (EC50 Vpx+ vs Vpx−) ([10]; THP1 PMA+): 4 fold; Fold (EC50 Vpx+ vs Vpx−) ([10]; THP1 PMA−): >5 fold
Nc1nc(Cl)nc2c1ncn2[C@@H]1O[C@H](COP(=O)(O)OP(=O)(O)OP(=O)(O)O)[C@@H](O)[C@@H]1F [CFB-TP, Clofarabine triphosphate] |  |  |  |  |  |  |  |  |  |  |  |  |  |  |  |  |  |  |  | substrate hydrolysed by SAMHD1 at a rate comparable to natural dNTP substrates | 
Nc1nc(O)c2ncn(COC(CO)COP(=O)(O)OP(=O)(O)OP(=O)(O)O)c2n1 (stereo not shown) [GCV-TP, Ganciclovir triphosphate] |  |  |  |  |  |  |  |  |  |  |  |  |  |  |  |  |  |  |  | non-hydrolysable | allosteric activation of SAMHD1 [11]: displayed no activation of SAMHD1
